Experimental data reported in publication PMC10776879, “In vitro screening of topical formulation excipients for epithelial toxicity in cancerous and non-cancerous cell lines” (EXCLI Journal, 2023).
Entries after “also recorded” stand apart in the source; their conditions may differ.

Experiments:
[1] = test system: D24 human melanoma cells; experiment: MTT cell viability assay; type: cell-based; conditions: 24 h exposure
Procedure: (§1) Cells were seeded into the 96-well cell culture plates in 100 μl of complete culture medium at the initial density of 2x10^4 (cells/ml). Cells were incubated under 5 % CO2 at 37 °C for 24 hours for adhering to the wells and medium was then replaced with 100 μl of fresh medium containing excipient solution at the required final concentration. Each concentration was tested in minimum of 5 replicates and control cells were exposed to the culture medium only.
(§2) After cell incubation for 24 h, the excipient-containing medium was removed, and 100 μl of MTT in PBS (5 mg/ml) diluted 1:10 in medium was then added in the dark. Plates were further incubated for 2-3 h, after which time the medium was removed and the purple formazan product was dissolved by adding 200 μl of DMSO to each well. Plates were then placed in a shaker for 5 min at room temperature and the absorbance of the resulting solutions was measured at 570 nm using a microplate reader (Multiskan™ FC Microplate Photometer). The effect of each treatment was calculated as the percentage of tetrazolium salt reduction by viable cells against the negative control (cells treated with culture medium only).
(§3) To assess the excipients' cytotoxicity, the dose-response effect of each excipient was measured against the cell lines. The cytotoxicity value for each concentration of the excipients was expressed as percentage of viability against the untreated control wells (the optical density of untreated cells was set at 100 % viability) to construct dose-response curves.
(§4) All IC50 values were expressed as µg/ml. The percentage viability was calculated as follows: […]

[2] = test system: HaCaT human keratinocytes; experiment: MTT cell viability assay; type: cell-based; conditions: 24 h exposure
Procedure: as §1, §2, §3, §4

[3] = test system: WM1366 human melanoma cells; experiment: MTT cell viability assay; type: cell-based; conditions: 24 h exposure
Procedure: as §1, §2, §3, §4

[4] = test system: WM164 human melanoma cells; experiment: MTT cell viability assay; type: cell-based; conditions: 24 h exposure
Procedure: as §1, §2, §3, §4

[5] = test system: primary skin fibroblasts (FB); experiment: MTT cell viability assay; type: cell-based, human; conditions: 24 h exposure
Procedure: as §1, §2, §3, §4

[6] = test system: D24 human melanoma cells; experiment: Crystal violet (CV) cell viability assay; type: cell-based; conditions: 24 h exposure
Procedure: (§5) Cells were seeded into the 96-well cell culture plates in 100 μl of complete culture medium at the initial density of 2x10^4 (cells/ml). Cells were incubated under 5 % CO2 at 37 °C for 24 hours for adhering to the wells and medium was then replaced with 100 μl of fresh medium containing excipient solution at the required final concentration. Each concentration was tested in minimum of 5 replicates and control cells were exposed to the culture medium only. Fixed cells were stained with crystal violet dye solution to screen cell viability under treatment conditions. Cells are fixed by 4 % (v/v) paraformaldehyde in PBS for 10 minutes. Crystal violet assay of 0.05 % (v/v) is prepared by 1:4 dilution of the crystal violet stock solution (v/v) in 4 % (v/v) paraformaldehyde. The fixed cells were washed twice with PBS and covered with 250 µl crystal violet working solution. The plates were placed on a bench rocker with medium frequency (20 oscillations per minute) at room temperature for 20 minutes. The plates were emptied and washed under indirect stream of tap water for three times and inverted on filter paper. The plates were taped gently on the paper to remove any remaining liquid and air dried with no lid for minimum of 2 hr at room temperature. After the plates were photographed, blue dye was dissolved in DMSO and the optical density of each well was measured at 570 nm (OD570) with a plate reader (Multiskan™ FC Microplate Photometer). The effect of each treatment was calculated as the percentage of crystal viable staining of surviving attached cells, against the negative control (cells treated with culture medium only). To assess the excipients' cytotoxicity, the dose-response effect of each excipient was measured against the cell lines. The cytotoxicity value for each concentration of the excipients was expressed as percentage of viability against the untreated control wells (the optical density of untreated cells was set at 100 % viability) to construct dose-response curves. […] All IC50 values were expressed as µg/ml. The percentage viability was calculated as follows: […]

[7] = test system: HaCaT human keratinocytes; experiment: Crystal violet (CV) cell viability assay; type: cell-based; conditions: 24 h exposure
Procedure: as §5

[8] = test system: WM1366 human melanoma cells; experiment: Crystal violet (CV) cell viability assay; type: cell-based; conditions: 24 h exposure
Procedure: as §5

[9] = test system: WM164 human melanoma cells; experiment: Crystal violet (CV) cell viability assay; type: cell-based; conditions: 24 h exposure
Procedure: as §5

[10] = test system: primary skin fibroblasts (FB); experiment: Crystal violet (CV) cell viability assay; type: cell-based, human; conditions: 24 h exposure
Procedure: as §5

[11] = test system: human cell lines (WM164, WM1366, D24, HaCaT, FB); experiment: MTT and CV cytotoxicity, statements over all tested cell lines; type: cell-based; conditions: for Irritancy ranking: rank by MTT and CV IC50 over all cell lines, 1 = most cytotoxic
Procedure: as §1, §2
Fixed cells were stained with crystal violet dye solution to screen cell viability under treatment conditions. Cells are fixed by 4 % (v/v) paraformaldehyde in PBS for 10 minutes. Crystal violet assay of 0.05 % (v/v) is prepared by 1:4 dilution of the crystal violet stock solution (v/v) in 4 % (v/v) paraformaldehyde. The fixed cells were washed twice with PBS and covered with 250 µl crystal violet working solution. The plates were placed on a bench rocker with medium frequency (20 oscillations per minute) at room temperature for 20 minutes. The plates were emptied and washed under indirect stream of tap water for three times and inverted on filter paper. The plates were taped gently on the paper to remove any remaining liquid and air dried with no lid for minimum of 2 hr at room temperature. After the plates were photographed, blue dye was dissolved in DMSO and the optical density of each well was measured at 570 nm (OD570) with a plate reader (Multiskan™ FC Microplate Photometer). The effect of each treatment was calculated as the percentage of crystal viable staining of surviving attached cells, against the negative control (cells treated with culture medium only).
as §3
The cytotoxicity of the excipients was expressed in terms of an IC50 values (concentration causing 50 % death of the cell population) (Goldberg and Frazier, 1989[37]). […] All IC50 values were expressed as µg/ml. The percentage viability was calculated as follows: […]

[12] = test system: human leukemic cells (CCRF); parameters: method as in Duncan et al., 1994[25]; conditions: ref Duncan et al., 1994[25]; cited from earlier work
[13] = Table 1, physicochemical information of the excipients, source not given; cited from earlier work

| Substance | IC50 (μg/ml) [Mean, Range] D24, MTT [1] | IC50 (μg/ml) [Mean, Range] HaCaT, MTT [2] | IC50 (μg/ml) [Mean, Range] WM1366, MTT [3] | IC50 (μg/ml) [Mean, Range] WM164, MTT [4] | IC50 (μg/ml) [Mean, Range] FB, MTT [5] | IC50 (μg/ml) [Mean, Range] D24, CV [6] | IC50 (μg/ml) [Mean, Range] HaCaT, CV [7] | IC50 (μg/ml) [Mean, Range] WM1366, CV [8] | IC50 (μg/ml) [Mean, Range] WM164, CV [9] | IC50 (μg/ml) [Mean, Range] FB, CV [10] | Cytotoxicity (result in words) ([11]; all cell lines, at the applied concentrations, 24 h) | Irritancy ranking [11] | Concentration causing significant inhibition of cell growth ([11]; all cell lines) [µg/mL] | IC50 ([11]; over the tested cell lines, this study) [µg/mL] | IC50, MTT assay [12] [µg/mL] | HLB [13] |
| --- | --- | --- | --- | --- | --- | --- | --- | --- | --- | --- | --- | --- | --- | --- | --- | --- |
| Propylene glycol dicaprylocaprate [Labrafac®] | > Max Conc. | > Max Conc. | > Max Conc. | > Max Conc. | > Max Conc. | > Max Conc. | > Max Conc. | > Max Conc. | > Max Conc. | > Max Conc. | non-toxic; also recorded: did not induce any reduction in cell viability; also recorded: caused no toxicity to any cell lines; also recorded: No damaging effects on cell growth | 5 |  |  |  |  |
| Triton X-100 [reference compound] | 0.0429 (0.04 to 0.05) μg/ml | 0.0417 (0.04 to 0.043) μg/ml | 0.083 µg/mL | 0.0042 (0.002 to 0.01) μg/ml | 0.1034 (0.08 to 0.16) μg/ml | 0.043 (0.04 to 0.045) μg/ml | 0.044 (0.042 to 0.047) μg/ml | 0.089 µg/mL | 0.0265 µg/mL | 0.094 (0.08 to 0.13) μg/ml |  | 1 | 0.004 | < 0.08 | 1 | 13.5 |
